The source of these data is patent publication US11089783B2, “2-(het)aryl-substituted fused heterocycle derivatives as pesticides” (Bayer Aktiengesellschaft, priority 2017, dated 2021).

What all share (assay type): in vivo
Test [1] has as its system Myzus persicae. In words: Myzus persicae oral test. As to conditions: 120 h, after 5 days, read-out: efficacy. As to the method:
[table] To produce a suitable active ingredient formulation, 1 part by weight of active ingredient is dissolved with the stated parts by weight of solvent and made up to the desired concentration with water. 50 μl of the active ingredient preparation are transferred into microtitre plates and made up to a final volume of 200 μl with 150 μl of IPL41 insect medium (33%+15% sugar). Subsequently, the plates are sealed with parafilm, which a mixed population of green peach aphids (Myzus persicae) within a second microtitre plate is able to puncture and imbibe the solution. After 5 days, the efficacy in % is determined. 100% means that all the aphids have been killed; 0% means that no aphids have been killed.

Test [2] concerns Lucilia cuprina. In words: Lucilia cuprina test. As to conditions: 48 h, L1 larvae, after 2 days, read-out: efficacy (kill). The method, then: Solvent: dimethyl sulfoxide To produce a suitable active ingredient formulation, 10 mg of active ingredient are mixed with 0.5 ml of dimethyl sulfoxide, and the concentrate is diluted with water to the desired concentration. About 20 L1 larvae of the Australian sheep blowfly (Lucilia cuprina) are transferred into a test vessel containing minced horsemeat and the active ingredient formulation of the desired concentration. After 2 days, the kill in % is determined. 100% means that all the larvae have been killed; 0% means that no larvae have been killed.

Test [3] deals with Phaedon cochleariae. In words: Phaedon cochleariae spray test (PHAECO), Chinese cabbage leaf discs. The conditions noted are these: for pest or weed control at 100 g/ha: read-out: efficacy. The essentials: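 Chinese cabbage (Brassica pekinensis) leaf discs sprayed with compound in water with 1000 ppm emulsifier, then after drying infested with Phaedon cochleariae larvae. Efficacy (% larvae killed) scored after 7 days or the chosen interval.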

Test [4] relates to Aphis gossypii. In words: Aphis gossypii spray test (APHIGO), cotton plants. As to conditions: 6 dat. The essentials:
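Cotton plants (Gossypium hirsutum) heavily infested with cotton aphids were sprayed with the active ingredient formulated in emulsifier-containing water (1000 ppm emulsifier), with ammonium salt or penetrant added at 1000 ppm where required. After the set time, percent kill was determined, where 100% means all aphids dead.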

For test [5], the system named is Myzus persicae. In words: Myzus persicae spray test (MYZUPE), Chinese cabbage leaf discs. Summed up: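 Leaf discs of Chinese cabbage carrying all stages of green peach aphid were sprayed with compound formulated in solvent and diluted with water containing emulsifier at 1000 ppm. Percent efficacy (100% = all aphids dead) was scored after 5 days or after the desired time.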

Test [6] deals with Nilaparvata lugens. In words: Nilaparvata lugens spray test (NILALU). As to conditions: 4 g/ha, 4 dat. As to the method:
[table] To produce an appropriate active ingredient formulation, 1 part by weight of active ingredient is dissolved with the specified parts by weight of solvent and made up with water containing an emulsifier concentration of 1000 ppm until the desired concentration is attained. To produce further test concentrations, the mixture is diluted with emulsifier-containing water. If addition of ammonium salts or/and penetrants is required, these are each added to the preparation solution in a concentration of 1000 ppm. Rice plants (Oryza sativa) are sprayed with an active ingredient formulation of the desired concentration and then populated with larvae of the brown planthopper (Nilaparvata lugens). After the desired time, the efficacy in % is determined. 100% means that all planthoppers have been killed; 0% means that no planthoppers have been killed.

Test [7] deals with Meloidogyne incognita. In words: Meloidogyne incognita test (MELGIN). The conditions noted are these: 14 days (14 dat). As to the method:
[table] To produce a suitable active ingredient formulation, 1 part by weight of active ingredient is mixed with the stated amount of solvent and the concentrate is diluted to the desired concentration with water. Vessels are filled with sand, active ingredient solution, an egg/larvae suspension of the southern root-knot nematode (Meloidogyne incognita) and lettuce seeds. The lettuce seeds germinate and the plants develop. The galls develop on the roots. After 14 days, the nematicidal efficacy in % is determined by the formation of galls. 100% means that no galls were found; 0% means that the number of galls on the treated plants corresponds to the untreated control. [table] To produce an appropriate active ingredient formulation, 1 part by weight of active ingredient is mixed with the specified amount of solvent and the concentrate is diluted to the desired concentration with water. Vessels are filled with sand, active ingredient solution, an egg/larvae suspension of the southern root-knot nematode (Meloidogyne incognita) and lettuce seeds. The lettuce seeds germinate and the plants develop. The root-knots develop on the roots. After the desired time, the nematicidal effect is determined from the formation of root-knots in %. 100% means that no root-knots were found; 0% means that the number of root-knots on the treated plants corresponds to that on the untreated control.

In test [8] the test system is Musca domestica. As to the kind of experiment: Musca domestica test. As to conditions: 100 ppm, adult houseflies, after 2 days. The method, then: Solvent: dimethyl sulfoxide To produce a suitable active ingredient formulation, 10 mg of active ingredient are mixed with 0.5 ml of dimethyl sulfoxide, and the concentrate is diluted with water to the desired concentration. Vessels containing a sponge treated with sugar solution and the active ingredient formulation of the desired concentration are populated with 10 adult houseflies (Musca domestica). After 2 days, the kill in % is determined. 100% means that all of the flies have been killed; 0% means that none of the flies have been killed.

Test [9] concerns Ctenocephalides felis. In words: Ctenocephalides felis oral test. As to conditions: 100 ppm, after 2 days. The method, then: Solvent: dimethyl sulfoxide To produce a suitable active ingredient formulation, 10 mg of active ingredient are mixed with 0.5 ml of dimethyl sulfoxide. Dilution with citrated cattle blood gives the desired concentration. About 20 unfed adult cat fleas (Ctenocephalides felis) are placed into a chamber which is closed at the top and bottom with gauze. A metal cylinder whose bottom end is closed with parafilm is placed onto the chamber. The cylinder contains the blood/active ingredient formulation, which can be imbibed by the fleas through the parafilm membrane. After 2 days, the kill in % is determined. 100% means that all of the fleas have been killed; 0% means that none of the fleas have been killed.

Test [10] has as its system Ctenocephalides felis. As to the kind of experiment: Ctenocephalides felis in vitro contact test with adult cat fleas. As to conditions: 5 μg/cm^2 (=500 g/ha), after 48 h. As to the method: For the coating of the test tubes, 9 mg of active ingredient are first dissolved in 1 ml of acetone p.a. and then diluted to the desired concentration with acetone p.a. 250 μl of the solution are distributed homogeneously on the inner walls and the base of a 25 ml glass tube by turning and rocking on an orbital shaker (rocking rotation at 30 rpm for 2 h). With 900 ppm of active ingredient solution and internal surface area 44.7 cm^2, given homogeneous distribution, an area-based dose of 5 μg/cm^2 is achieved. After the solvent has evaporated off, the tubes are populated with 5-10 adult cat fleas (Ctenocephalides felis), sealed with a perforated plastic lid and incubated in a horizontal position at room temperature and ambient humidity. After 48 h, efficacy is determined. To this end, the tubes are stood upright and the fleas are knocked to the base of the tube. Fleas which remain motionless at the base or move in an uncoordinated manner are considered to be dead or moribund. […] 100% efficacy means that all the fleas were dead or moribund. 0% efficacy means that no fleas were harmed.

Test [11] relates to Nezara viridula. As to the kind of experiment: Nezara viridula spray test (NEZARA / NEZAVI). As to conditions: Nezara viridula, 96 h, 20 g/ha, 4 dat, read-out: % efficacy. The essentials:
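Barley plants infested with Nezara viridula larvae were sprayed with active ingredient in solvent/emulsifier water (1000 ppm emulsifier; ammonium salt or penetrant at 1000 ppm if added). Efficacy scored as % mortality after the set time (100% = all bugs killed).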

Test [12] concerns Myzus persicae. In words: Myzus persicae drench test (MYZUPE D), savoy cabbage plants. The conditions noted are these: soil, 240 h, 10 dat, read-out: % efficacy. As to the method: [table] To produce an appropriate active ingredient formulation, 1 part by weight of active ingredient is mixed with the specified amounts of solvent and emulsifier and the concentrate is diluted to the desired concentration with water, it being necessary to take into account the volume of soil into which drenching is effected. It should be ensured that a concentration of 40 ppm of emulsifier in the soil is not exceeded. For production of further test concentrations, the mixture is diluted with water. Savoy cabbage plants (Brassica oleracea) in soil pots, infested by all stages of the green peach aphid (Myzus persicae), are drenched with an active ingredient formulation of the desired concentration. After the desired time, the efficacy in % is determined. 100% means that all the aphids have been killed; 0% means that no aphids have been killed.

Setting [13] is: Myzus persicae, foliar, 120 h, 5 days (5 dat), read-out: efficacy.
The mark [14] stands for this setting: Phaedon cochleariae, foliar, 168 h, 100 g/ha, 7 days (7 dat).

Each structure is given as a SMILES string.

As to `CCS(=O)(=O)c1ccc(C(=O)NC)nc1-c1nc2cc(C(F)(F)C(F)(F)F)nnc2n1C` [Example I-01], the pest or weed control at 0.8 ppm in test [1] turned out to be 100%. Also, the pest or weed control at 100 ppm in [2] came to 100%. Moreover, in [3] (100 g/ha, 7 days (7 dat)), the efficacy was 100%. Besides, the “% efficacy” value in test [3] (PHAECO, 20 g/ha, 7 dat) is 67%; in test [4] (0.8 ppm) it was 70%; in test [4] (4 ppm) it was 100%; in test [5] (MYZUPE, 4 g/ha, 5 dat), 90%; in test [6], 100%. Besides, the pest or weed control at 100 g/ha in [5] (setting [13]) stood at 90%. In addition, in test [7] (20 ppm), the “efficacy (nematicidal, gall formation)” value is listed as 90%. In addition, the “efficacy (kill)” value in test [8] was 100%.

As to `CCNC(=O)c1ccc(S(=O)(=O)CC)c(-c2nc3cc(C(F)(F)C(F)(F)F)nnc3n2C)n1` [Example I-04, N-ethyl-5-(ethylsulfonyl)-6-[7-methyl-3-(pentafluoroethyl)-7H-imidazo[4,5-c]pyridazin-6-yl]pyridine-2-carboxamide], in test [1], the pest or weed control at 0.8 ppm turned out to be 100%. Also, the pest or weed control at 100 ppm in test [2] came out at 100%. The pest or weed control at 100 g/ha in [3] (setting [14]) and in test [5] (setting [13]) was 100% each time. Moreover, the “efficacy (kill)” value in [8] is listed as 80%.

Consider `CNC(=O)Nc1ccc(S(C)(=O)=O)c(-c2nc3cc(C(F)(F)C(F)(F)F)nnc3n2C)n1` [Example I-11], for which the pest or weed control at 0.8 ppm in [1] was 100%. Also, the pest or weed control at 100 ppm in [2] was determined as 100%. Further, in test [3] (setting [14]), the pest or weed control at 100 g/ha was 100%. For the same compound, the Emax at 20 g/ha was found to be 83% in [3] (Phaedon cochleariae, foliar, 168 h, PHAECO, 20 g/ha, 7 dat, read-out: % efficacy) and 100% in test [11]. The Emax at 20 ppm in test [4] (Aphis gossypii, 144 h, 20 ppm, read-out: % efficacy) was 95%. The “efficacy (kill)” value in test [9] is listed as 100%. In [10], this compound yielded an efficacy of 100%. Also, the Emax at 0.8 ppm in [12] (0.8 ppm) was 95%. Further, the Emax at 4 ppm in [12] (4 ppm) stood at 98%.

In the case of `CN(C)C(=O)Nc1ccc(S(C)(=O)=O)c(-c2nc3cc(C(F)(F)C(F)(F)F)nnc3n2C)n1` [Example I-12], the pest or weed control at 0.8 ppm in [1] was found to be 100%. Besides, the pest or weed control at 100 ppm in [2] was 100%. Also, the pest or weed control at 100 g/ha in [3] (setting [14]) came to 100%; in test [5] (setting [13]), 90%. In test [3] (Phaedon cochleariae, foliar, 168 h, PHAECO, 20 g/ha, 7 dat), this compound registered a percent efficacy (larval mortality) at a fixed application rate at 20 g/ha of 100%. In test [5] (Myzus persicae, foliar, 120 h, 20 g/ha, 5 days (5 dat), read-out: efficacy), the pest or weed control at 20 g/ha was 90%. The “efficacy (kill)” value in test [9] was 100%. Further, the efficacy in [10] was determined as 100%. In test [7] (Meloidogyne incognita, 336 h, read-out: efficacy (nematicidal, gall formation)), the pest or weed control at 20 ppm worked out at 100%.
